Measured values reported in ChEMBL document CHEMBL1201862, “PubChem BioAssay data set” (2004).
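Results reflect a 48-hour exposure of cells in 96-well plates to compound at five concentrations. GI50: concentration for 50% inhibition of growth.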 Calls of active or inactive are those of the source. No stated cut-off is given here; in the data, active = GI50 up to about 1.1 µM and inactive = higher.

Experiments:
Assay in all cases: growth of human tumour cells (NCI), 48 h
Hs-578T = system: Hs-578T
OVCAR-5 = system: OVCAR-5
A549 = system: A549
HOP-92 = system: HOP-92
NCI-H23 = system: NCI-H23
MDA-N = system: MDA-N
HCT-15 = system: HCT-15
KM12 = system: KM12
CAKI-1 = system: CAKI-1
SNB-75 = system: SNB-75
SW-620 = system: SW-620
OVCAR-8 = system: OVCAR-8
HT-29 = system: HT-29
MDA-MB-435 = system: MDA-MB-435
NCI/ADR-RES = system: NCI/ADR-RES
UACC-62 = system: UACC-62
UO-31 = system: UO-31
COLO 205 = system: COLO 205
SNB-19 = system: SNB-19
BT-549 = system: BT-549
OVCAR-4 = system: OVCAR-4
MDA-MB-231 = system: MDA-MB-231
ACHN = system: ACHN
DU-145 = system: DU-145
UACC-257 = system: UACC-257
SF-268 = system: SF-268
T47D = system: T47D
M14 = system: M14
HOP-62 = system: HOP-62
786-0 = system: 786-0
SK-MEL-2 = system: SK-MEL-2
TK-10 = system: TK-10
SN12C = system: SN12C
NCI-H226 = system: NCI-H226
A498 = system: A498
SF-295 = system: SF-295
EKVX = system: EKVX
PC-3 = system: PC-3
RXF 393 = system: RXF 393
HCC 2998 = system: HCC 2998
U-251 = system: U-251
CCRF-CEM = system: CCRF-CEM
IGROV-1 = system: IGROV-1
OVCAR-3 = system: OVCAR-3
SK-OV-3 = system: SK-OV-3
SK-MEL-28 = system: SK-MEL-28
NCI-H460 = system: NCI-H460
NCI-H522 = system: NCI-H522
HCT-116 = system: HCT-116
K562 = system: K562
Malme-3M = system: Malme-3M
MCF7 = system: MCF7
SR = system: SR
SF-539 = system: SF-539
MOLT-4 = system: MOLT-4
SK-MEL-5 = system: SK-MEL-5
HL-60 = system: HL-60
RPMI-8226 = system: RPMI-8226
LOX IMVI = system: LOX IMVI

For `COC(=O)[C@@]12OC[C@]34[C@H]([C@@H](O)[C@@H]1O)[C@@]1(C)CC(=O)C(OC(C)=O)=C(C)[C@@H]1C[C@H]3OC(=O)[C@H](OC(=O)C=C(C)C)[C@@H]24`, the GI50 (Hs-578T) was 0.857 µM (active), the GI50 (OVCAR-5) was 1.75 µM (inactive) and the GI50 (A549) was 0.838 µM (active). The GI50 (HOP-92) was 0.813 µM (active), the GI50 (NCI-H23) was 0.574 µM (active) and the GI50 (MDA-N) was 0.714 µM (active). The GI50 (HCT-15) was 1.77 µM, the GI50 (KM12) was 0.596 µM (active) and the GI50 (CAKI-1) was 2.7 µM (inactive). For the same molecule, the GI50 (SNB-75) was 1.44 µM (inactive), the GI50 (SW-620) was 0.914 µM (active) and the GI50 (OVCAR-8) was 0.743 µM (active). The GI50 (HT-29) was 0.543 µM (active), the GI50 (MDA-MB-435) was 0.738 µM (active) and the GI50 (NCI/ADR-RES) was 12.8 µM (inactive). The GI50 (UACC-62) was 0.721 µM (active), the GI50 (UO-31) was 2.64 µM (inactive) and the GI50 (COLO 205) was 0.764 µM (active). For the same molecule, the GI50 (SNB-19) was 0.627 µM (active), the GI50 (BT-549) was 1.52 µM (inactive) and the GI50 (OVCAR-4) was 0.752 µM (active). The GI50 (MDA-MB-231) was 1.81 µM (inactive), the GI50 (ACHN) was 1.82 µM (inactive) and the GI50 (DU-145) was 1.34 µM (inactive). For the same molecule, the GI50 (UACC-257) was 0.557 µM (active), the GI50 (SF-268) was 0.853 µM (active) and the GI50 (T47D) was 0.977 µM (active). The GI50 (M14) was 0.755 µM (active), the GI50 (HOP-62) was 0.607 µM (active) and the GI50 (786-0) was 0.895 µM (active). The GI50 (SK-MEL-2) was 0.656 µM (active), the GI50 (TK-10) was 1 µM (active) and the GI50 (SN12C) was 1.17 µM (inactive). For the same molecule, the GI50 (NCI-H226) was 0.746 µM (active), the GI50 (A498) was 0.43 µM (active) and the GI50 (SF-295) was 0.82 µM (active). The GI50 (EKVX) was 1.44 µM (inactive), the GI50 (PC-3) was 0.948 µM (active) and the GI50 (RXF 393) was 0.75 µM (active).
With `Brc1ccc(/N=N/N2CCCC2)cc1` the GI50 (HCC 2998) was 40.6 µM (inactive), the GI50 (U-251) was 89.1 µM (inactive) and the GI50 (Hs-578T) was > 100 µM (inactive). The GI50 (OVCAR-5) was > 100 µM (inactive), the GI50 (A549) was 74.1 µM (inactive) and the GI50 (HOP-92) was 27.2 µM (inactive). The GI50 (NCI-H23) was 45.2 µM (inactive), the GI50 (MDA-N) was 64.9 µM (inactive) and the GI50 (CCRF-CEM) was 42 µM (inactive). For the same molecule, the GI50 (IGROV-1) was 34.8 µM (inactive), the GI50 (HCT-15) was 50.7 µM and the GI50 (OVCAR-3) was 81.5 µM (inactive). The GI50 (KM12) was 70.3 µM (inactive), the GI50 (CAKI-1) was 27.7 µM (inactive) and the GI50 (SW-620) was > 100 µM (inactive). The GI50 (HT-29) was > 100 µM (inactive), the GI50 (MDA-MB-435) was 48.1 µM (inactive) and the GI50 (SK-OV-3) was > 100 µM (inactive). For the same molecule, the GI50 (UACC-62) was > 100 µM (inactive), the GI50 (SK-MEL-28) was > 100 µM (inactive) and the GI50 (UO-31) was 32.4 µM (inactive). For the same molecule, the GI50 (COLO 205) was > 100 µM (inactive), the GI50 (SNB-19) was > 100 µM (inactive) and the GI50 (BT-549) was 44.6 µM (inactive). The GI50 (OVCAR-4) was > 100 µM (inactive), the GI50 (NCI-H460) was 48.2 µM (inactive) and the GI50 (MDA-MB-231) was > 100 µM (inactive). For the same molecule, the GI50 (NCI-H522) was 27.4 µM (inactive), the GI50 (HCT-116) was 58.6 µM (inactive) and the GI50 (K562) was 60 µM (inactive). For the same molecule, the GI50 (ACHN) was 71.6 µM (inactive), the GI50 (DU-145) was 49.7 µM (inactive) and the GI50 (UACC-257) was 93.8 µM (inactive). The GI50 (Malme-3M) was > 100 µM (inactive), the GI50 (SF-268) was 95.1 µM (inactive) and the GI50 (T47D) was 14.4 µM (inactive). For the same molecule, the GI50 (M14) was > 100 µM (inactive), the GI50 (HOP-62) was > 100 µM (inactive) and the GI50 (786-0) was > 100 µM (inactive). For the same molecule, the GI50 (MCF7) was 65.8 µM (inactive), the GI50 (SR) was 34.6 µM (inactive) and the GI50 (SF-539) was > 100 µM (inactive). For the same molecule, the GI50 (SK-MEL-2) was 57.1 µM (inactive), the GI50 (TK-10) was 82.4 µM (inactive) and the GI50 (MOLT-4) was 28.6 µM (inactive). The GI50 (SN12C) was 59 µM (inactive), the GI50 (NCI-H226) was > 100 µM (inactive) and the GI50 (A498) was 41.6 µM (inactive). The GI50 (SF-295) was 77.1 µM (inactive), the GI50 (SK-MEL-5) was 27.1 µM (inactive) and the GI50 (EKVX) was 66.7 µM (inactive). The GI50 (HL-60) was 38.8 µM (inactive), the GI50 (RPMI-8226) was 51.1 µM (inactive) and the GI50 (PC-3) was 31.8 µM (inactive). The GI50 (RXF 393) was 81.7 µM (inactive) and the GI50 (LOX IMVI) was 40.4 µM (inactive).
